According to ChEMBL document CHEMBL1123299, “New antiarrhythmic agents. 2,2,5,5-Tetramethyl-3-pyrroline-3-carboxamides and 2,2,5,5-tetramethylpyrrolidine-3-carboxamindes” (J Med Chem, 1986):

Tests used:
[1] = system: Rattus norvegicus; test: Incidence of arrhythmias in rats after a intravenal administration at 4 mg/kg, expressed as no. of positive cases out of no. of tested cases (10); format: functional
[2] = Acute toxicity determined after intravenal administration in mice; format: organism-based; details: mouse, in vivo, iv
[3] = organism: Rattus norvegicus; test: Relative potency with reference to quinidine; format: functional
[4] = system: Rattus norvegicus; test: Effective dose against aconitine-induced arrhythmia after intravenal administration in anesthetized rats; format: functional

Row | SMILES | No. of positive cases [1] | LD50 [2] [mg/kg] | Relative potency [3] | ED150 [4] [mg/kg]
1 | Cc1cc(Cl)ccc1OCC(=O)NCCCNC(=O)C1=CC(C)(C)NC1(C)C | 3 | 30 |  | 
2 | C=CCOc1ccc(CNCCCNC(=O)C2=CC(C)(C)NC2(C)C)cc1OC | 10 | 21 | 5.4 | 2.2
3 | COc1ccc(CNC(=O)C2=CC(C)(C)NC2(C)C)cc1 | 0 | 66 |  | 
4 | CC1(C)C=C(C(=O)NCC(C)(C)NCc2cccs2)C(C)(C)N1 | 1 | 49 |  | 
5 | C=CCOc1ccc(CNCCCNC(=O)C2=CC(C)(C)NC2(C)C)cc1 | 6 | 28 | 4.1 | 2.9
6 | Cc1nc2ccccc2c(=O)n1CCNC(=O)C1=CC(C)(C)NC1(C)C | 4 |  |  | 
7 | CC1(C)C=C(C(=O)NCCCNCc2ccncc2)C(C)(C)N1 | 0 | 94 |  | 
8 | CC1(C)C=C(C(=O)NCC(O)CN2C(=O)c3ccccc3C2=O)C(C)(C)N1 (stereo not drawn) | 10 |  | 3.9 | 
9 | CC1(C)C=C(C(=O)NCCCNCc2ccc(Oc3ccccc3)cc2)C(C)(C)N1 | 10 | 23 | 9.2 | 1.3
10 | CC1(C)C=C(C(=O)NCCN2C(=O)C3CC=CCC3C2=O)C(C)(C)N1 (stereo not drawn) | 0 | 182 |  | 
11 | CC1(C)C=C(C(=O)NCCNC(=O)c2ccc3c(c2)OCO3)C(C)(C)N1 | 2 | 95 |  | 
12 | CC1(C)C=C(C(=O)NCCCNC(=O)c2ccccc2C(=O)O)C(C)(C)N1 | 0 |  |  | 
13 | CC1(C)C=C(C(=O)NCCCNCc2ccco2)C(C)(C)N1 | 0 | 34 |  | 
14 | CC1(C)C=C(C(=O)NCCCNCc2ccc(C(F)(F)F)cc2)C(C)(C)N1 | 7 | 65 | 2.5 | 4.8
15 | CC1(C)C=C(C(=O)NCCNCc2ccccc2O)C(C)(C)N1 | 10 | 30 | 11.9 | 1
16 | CC1(C)C=C(C(=O)NC(C(N)=O)c2ccccc2)C(C)(C)N1 (stereo not drawn) | 2 | 75 |  | 
17 | CC1(C)C=C(C(=O)NCCNC(=O)c2cccs2)C(C)(C)N1 | 3 | 93 |  | 
18 | CC1(C)C=C(C(=O)NCc2ccc(Cl)cc2)C(C)(C)N1 | 0 | 49 |  | 
19 | CC1(C)C=C(C(=O)NCCCNC(=O)COc2ccc(Cl)cc2Cl)C(C)(C)N1 | 5 | 20 |  | 

Row | SMILES | No. of positive cases [1] | LD50 [2] [mg/kg] | Relative potency [3] | ED150 [4] [mg/kg]
20 | C=CCOc1c(CNCCCNC(=O)C2=CC(C)(C)NC2(C)C)cccc1OC | 10 | 15 | 7 | 1.7
21 | Cc1nc2ccccc2c(=O)n1CCCNC(=O)C1CC(C)(C)NC1(C)C (stereo not drawn) | 3 | 53 |  | 
22 | CC1(C)C=C(C(=O)NCCCN2C(=O)C3CCCCC3C2=O)C(C)(C)N1 (stereo not drawn) | 0 | 106 |  | 
23 | CC(CNC(=O)C1=CC(C)(C)NC1(C)C)NCc1cccs1 (stereo not drawn) | 4 | 68 |  | 
24 | CC1(C)C=C(C(=O)NCCCNC(=O)C(O)c2ccccc2)C(C)(C)N1 (stereo not drawn) | 1 | 52 |  | 
25 | CC1(C)C=C(C(=O)NCCCNC(=O)CSc2ccccc2)C(C)(C)N1 | 7 |  | 1.7 | 6.9
26 | CC1(C)C=C(C(=O)NCCCNC(=O)Cc2ccccc2)C(C)(C)N1 | 6 | 54 |  | 
27 | CC1(C)C=C(C(=O)NCCCNC(=O)c2ccc3c(c2)OCO3)C(C)(C)N1 | 4 | 76 |  | 
28 | CC1(C)CC(C(=O)NCCCNCc2ccc(C(F)(F)F)cc2)C(C)(C)N1 (stereo not drawn) | 9 |  | 4.1 | 
29 | CC1(C)C=C(C(=O)NCC(O)CNC(=O)C(C)(C)Oc2ccc(Cl)cc2)C(C)(C)N1 (stereo not drawn) | 0 | 69 |  | 
30 | Cc1cc(Cl)ccc1OCC(=O)NCCNC(=O)C1=CC(C)(C)NC1(C)C | 2 | 36 |  | 
31 | CC1(C)C=C(C(=O)NCCCNCc2ccc[nH]2)C(C)(C)N1 | 4 | 20 |  | 
32 | C/C=C/c1ccc(OCC(=O)NCCNC(=O)C2=CC(C)(C)NC2(C)C)c(OC)c1 | 7 | 18 | 2.9 | 
33 | CC1(C)CC(C(=O)NCCCN2C(=O)c3ccccc3C2=O)C(C)(C)N1 (stereo not drawn) | 10 |  | 2.6 | 
34 | Cc1cccc(C)c1NC(=O)C(C)NCCNC(=O)C1=CC(C)(C)NC1(C)C (stereo not drawn) | 4 | 39 |  | 
35 | CC1(C)C=C(C(=O)NCc2ccncc2)C(C)(C)N1 | 0 | 132 |  | 
36 | CC1(C)C=C(C(=O)NCCCCNCc2cccs2)C(C)(C)N1 | 10 |  | 2.5 | 
37 | CC1(C)CC(C(=O)NCCCNCc2ccsc2)C(C)(C)N1 (stereo not drawn) | 7 |  | 0.9 | 
38 | CC(NCCNC(=O)C1=CC(C)(C)NC1(C)C)c1cccs1 (stereo not drawn) | 2 | 53 |  | 
